Test results reported in patent publication US12121606B2, “Methods and compositions for improving skin” (L'OREAL, priority 2021, dated 2024).

Test system: in vitro skin samples (EPISKIN)
Test: In vitro skin samples after fractional laser procedure, wound healing by OCT imaging
Assay type: cell-based
Conditions: application after the fractional laser procedure
Description: The benefits of applying the Composition 4 to skin after a procedure that reduces the barrier function of skin was evaluated in vitro using samples generated by the EPISKIN™ group. Composition 4 comprised 0.5 wt. % of acetyl trifluoromethylphenyl valylglycine and 2 wt. % ethanol with the remainder being water, with all weight percentages based on the total weight of the formulation. A comparative composition (Comparative Composition A) containing transforming growth factor alpha (“TGF-α”) was also evaluated as a comparison to the Composition 4.
Specifically, a fractional laser procedure that is typical of laser resurfacing procedures was applied to the in vitro skin samples. The in vitro skin samples were characterized using non-invasive imaging analysis to determine the wound morphology of the in vitro skin samples. The kinetics and quantification of wound healing after the laser treatment was evaluated using optical coherence tomography (OCT). The optical measurements were performed at seven time points over the culture period. This was achieved using an OCT system produced by Thorlabs (Newton, N.J., USA) with an axial resolution of 8 μm.
Composition 4 and Comparative Composition A were applied by adding 10 uL onto in vitro skin samples after the fractional laser procedure. […]

CC(=O)N(c1cccc(C(F)(F)F)c1)C(C(=O)NCC(=O)O)C(C)C (stereo not shown) [acetyl trifluoromethylphenyl valylglycine]
regeneration of the epidermis: enhanced regeneration of the epidermis
